Values of other authors, collected in US10092644B2, “Use of fluorinated cyclic dinucleotides as oral vaccine adjuvants” (BROCK UNIVERSITY, priority 2013, dated 2018).

Tested on: S. penuemoniae pneumolysin toxid (PdB) or pneumococal surface protection (PspA)
Conditions: mice, interperitoneally, PdB or PspA adjuvanted with c-di-GMP (Chen et al. 2010; Ogunniyi et al. 2008); cited from earlier work

SMILES: Nc1nc2c(ncn2C2OC3COP(=O)(O)OC4C(COP(=O)(O)OC3C2O)OC(n2cnc3c(=O)[nH]c(N)nc32)C4O)c(=O)[nH]1 (stereo not shown) [c-di-GMP, 3′,5′-cyclic diguanylic acid]
- antigen-specific antibody response: enhanced
